This passage reports Change and EC50 results from ChEMBL document CHEMBL1133395, “Novel oximes having 5-benzyl-2,4-thiazolidinedione as antihyperglycemic agents: synthesis and structure-activity relationship” (Bioorg Med Chem Lett, 2000).

For one assay, the species on record is Mus musculus. Briefly: Blood glucose lowering activity in hyperglycemic kk mice. Type of assay: functional. Set-up: concentration or dose not given beside the values.
In assay [1] the target is T1, Peroxisome proliferator-activated receptor gamma (Homo sapiens, UniProt P37231).
T1 sequence (P37231 whole entry): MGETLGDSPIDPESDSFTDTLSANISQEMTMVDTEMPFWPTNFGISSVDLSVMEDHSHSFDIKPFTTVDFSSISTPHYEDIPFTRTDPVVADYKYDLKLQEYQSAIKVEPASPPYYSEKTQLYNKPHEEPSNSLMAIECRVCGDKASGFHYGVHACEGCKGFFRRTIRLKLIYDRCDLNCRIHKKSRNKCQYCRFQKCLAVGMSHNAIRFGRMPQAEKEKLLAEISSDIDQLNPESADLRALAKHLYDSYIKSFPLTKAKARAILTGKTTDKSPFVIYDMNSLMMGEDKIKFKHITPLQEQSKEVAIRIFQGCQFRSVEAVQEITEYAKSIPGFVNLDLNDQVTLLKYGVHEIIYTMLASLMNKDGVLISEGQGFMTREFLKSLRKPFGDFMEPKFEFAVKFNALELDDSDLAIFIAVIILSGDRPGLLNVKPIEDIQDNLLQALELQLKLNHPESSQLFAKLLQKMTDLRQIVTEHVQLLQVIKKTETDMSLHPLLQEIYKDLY
Description: Peroxisome proliferator activated receptor gamma agonistic activity in HepG2 cells.

The structures appear in SMILES notation. pEC50: −log10 of the molar value.

As a reminder, the pEC50 is the EC50 on a negative log10 scale, so that one unit is a factor of ten. `CCC/C(=N\OCCOc1ccc(CC2SC(=O)NC2=O)cc1)c1ccc(-c2ccccc2)cc1` (stereo not drawn) came in with a Change in the assay filed under Mus musculus of 29%. The pEC50 in assay [1] is below 4.00. Taken in the same sequence, the figures for `C/C(=N\OCCCOc1ccc(CC2SC(=O)NC2=O)cc1)c1ccc(-c2ccccc2)cc1` (stereo not drawn) were 20% and below 4.00.

As for `C/C(=N\OCCOc1ccc(CC2SC(=O)NC2=O)cc1)c1ccc(-c2ccccc2)nc1` (stereo not drawn), the Change in the assay listed under Mus musculus turned out to be 58%. Compound `C/C(=N\OCCOc1ccc(CC2SC(=O)NC2=O)cc1)c1ccc(-c2ccccn2)cc1` (stereo not drawn) yielded a Change in the assay listed under Mus musculus of 58%. The same compound had a negative-log EC50 (pEC50) in assay [1] of 6.19. Taken in the same sequence, the figures for `C/C(=N\OCCOc1ccc(CC2SC(=O)NC2=O)cc1)c1ccc(-c2ccncc2)cc1` (stereo not drawn) were 44% and 5.80.

In turn, `C/C(=N\OCCOc1ccc(CC2SC(=O)NC2=O)cc1)c1cccnc1` (stereo not drawn) showed a Change in the assay listed under Mus musculus of 43%. In assay [1], this compound had a pEC50 of 5.55.

Regarding `C/C(=N\OCCOc1ccc(CC2SC(=O)NC2=O)cc1)c1ccc(-c2ccccc2)cc1` (stereo not drawn), the Change in the assay listed under Mus musculus was found to be 67%. For the same compound, the negative-log EC50 (pEC50) in assay [1] was 6.40. Regarding `C/C(=N\OCCOc1ccc(CC2SC(=O)NC2=O)cc1)c1ccccc1` (stereo not drawn), the Change in the assay filed under Mus musculus came out at 57%. Moreover, in assay [1], the pEC50 is 5.77. For `CN(CCOc1ccc(CC2SC(=O)NC2=O)cc1)c1ccccn1.O=C(O)/C=C\C(=O)O` (stereo not drawn) [ROSIGLITAZONE MALEATE], the Change in the assay listed under Mus musculus is listed as 66%. `C/C(=N\OCCOc1ccc(CC2SC(=O)NC2=O)cc1)c1ccccn1` (stereo not drawn) displayed a Change in the assay filed under Mus musculus of 67%. In assay [1], this compound showed a pEC50 of 5.55. The compound `CCc1ccc(CCOc2ccc(CC3SC(=O)NC3=O)cc2)nc1.Cl` (stereo not drawn) [PIOGLITAZONE HYDROCHLORIDE] displayed a Change in the assay listed under Mus musculus of 42%. `C/C(=N\OCCOc1ccc(CC2SC(=O)NC2=O)cc1)c1ccc(-c2cccnc2)cc1` (stereo not drawn): in the assay filed under Mus musculus, the Change is given as 42%. Besides, in assay [1], the pEC50 is 6.10. On to `C/C(=N\OCCOc1ccc(CC2SC(=O)NC2=O)cc1)c1cccc(-c2ccccc2)c1` (stereo not drawn), for which the Change in the assay filed under Mus musculus is on record as 42%. The compound also showed a pEC50 in assay [1] of 6.48. Compound `C/C(=N\OCCOc1ccc(CC2SC(=O)NC2=O)cc1)c1ccccc1-c1ccccc1` (stereo not drawn) showed a Change in the assay listed under Mus musculus of 23%. The pEC50 in assay [1] was below 4.00.

In the assay listed under Mus musculus, `O=C1NC(=O)C(Cc2ccc(OCCO/N=C/c3ccc(-c4ccccc4)cc3)cc2)S1` (stereo not drawn) registered a Change of 7%. In addition, the pEC50 in assay [1] is below 4.00.

Regarding `C/C(=N\OCCOc1ccc(CC2SC(=O)NC2=O)cc1)c1ccncc1` (stereo not drawn), in the assay listed under Mus musculus, the Change stood at 48%. The same compound had a pEC50 in assay [1] of 5.10. The compound `C/C(=N\OCCOc1ccc(CC2SC(=O)NC2=O)cc1)c1ccc(-c2ccccc2)cn1` (stereo not drawn) had a Change in the assay filed under Mus musculus of 61%. This compound showed a pEC50 in assay [1] of 5.96. Taken in the same sequence, the figures for `CC/C(=N\OCCOc1ccc(CC2SC(=O)NC2=O)cc1)c1ccc(-c2ccccc2)cc1` (stereo not drawn) were 67% and 5.80.
